Assay results published in PMC10892375, “Determination of the Cannabinoid CB1 Receptor’s Positive Allosteric Modulator Binding Site through Mutagenesis Studies” (Pharmaceuticals, 2024).

Key:
Format in all cases: cell-based
WT hCB1 = target: T1, WT hCB1 (Homo sapiens, UniProt P21554); assay: pIRES G protein dissociation BRET assay, WT hCB1; conditions: for Allosteric modulation of maximal CP55940-induced G protein dissociation / Effect on the potency of CP55940-induced G protein dissociation: 10 μM allosteric ligand; for Allosteric modulation of maximal CP55940-induced G protein dissociation / Allosteric agonism: G protein dissociation in the absence of an orthosteric ligand / Effect on the potency of CP55940-induced G protein dissociation: result in words; for G protein dissociation, AUC of 10 μM compound (maximal response): 10 μM ligand alone
T1 construct: expressed in transfected cells; host or cells: HEK293
Description: (§1) Mutagenesis studies using the pIRES G protein dissociation assay were performed using human embryonic kidney 293 (HEK293) wild-type cells transiently transfected with pplss-3HA-hCB1 [31] or modified receptor. All cells were cultured in Dulbecco’s Modified Eagle’s Medium (DMEM) supplemented with 10% fetal bovine serum (FBS), grown in […] vented-cap flasks, and maintained in a 37° C incubator at 5% CO2.
(§2) Dissociation of the G protein heterotrimer, specifically Gαi1, Gβ1, and Gγ2, was investigated using a bioluminescence resonance energy transfer (BRET) assay with the pIRES biosensor first described by and adapted by.
(§3) Briefly, 3 × 10^6 WT HEK293 cells were seeded into 10 cm culture dishes (Corning, Corning, NY, USA; one dish for the control receptor and one for each modified receptor) and incubated at 37 °C for 24 h to gain 50–60% confluency. Culture medium was then replaced and transfection mixtures containing 3 μg pIRES vector and 1 μg receptor (either pplss-hCB1 or modified receptor) were prepared (4 μg total DNA). Plasmids were initially diluted in sterile Milli-Q water before being diluted in OptiMEM reduced serum medium (Thermo Fisher Scientific, Waltham, MA, USA) and combined with […] polyethylenimine (PEI)-max (1:9 DNA:PEI-max ratio) and incubated at room temperature for 20 min. Transfection mixtures were then added to cells via dropwise addition, and cells were incubated at 37 °C for 24 h. Transfected cells were lifted and plated at 50,000 cells/well into poly-d-lysine (PDL; Sigma-Aldrich) coated white 96-well CulturPlates (PerkinElmer, Waltham, MA, USA) and incubated for a further 24 h at 37 °C.
To assay, the culture medium was aspirated and cells were washed with phosphate buffered saline (PBS) and replaced with BRET assay medium (phenol red free DMEM containing 25 mM HEPES and supplemented with 1 mg/mL bovine serum albumin; BSA, MP Biomedicals, Auckland, New Zealand) for 30 min prior to drug addition (serum starve). Drugs were prepared at 10 × concentration in BRET assay medium, combined in a polypropylene V-bottom plate, and incubated at 37° C prior to drug stimulation. Coelenterazine-h (Nanolight Technology, Prolume Ltd, Pinetop, AZ, USA) was prepared at 10 × concentration in BRET assay medium (final concentration 5 μM) and dispensed to cells immediately prior to drug stimulation. Plates were transferred to the LUMIstar Omega plate reader (BMG Labtech GmbH, Ortenburg, BW, Germany) and luminescence (475 and 535 nm) was detected simultaneously in the dark with BRET1 filters for approximately 5 min to establish a baseline BRET ratio. Drugs were added to cells, plates were returned to the LUMIstar and luminescence was detected for a further 25 min. BRET ratios (475/535) were calculated in Omega MARS software v 3.32, exported, and data were analysed using GraphPad Prism v8. Baseline correction was performed using an in-built function in GraphPad Prism, subtracting vehicle BRET ratios from matched conditions. Area under the curve (AUC) analysis was performed in GraphPad Prism using an in-built function to obtain concentration response data.
All data analysis was performed using GraphPad Prism v8. Sigmoidal concentration series were generated by performing AUC analysis and fit using three-parameter nonlinear regression curves. Statistical analyses were performed using data interpolated from nonlinear regression curves using parameters derived from five independent biological replicates. Both one- and two-way repeated measures ANOVA and paired t-tests were used where appropriate (specified in-text), and posthoc tests, specified in text, were performed when significance was reached (p < 0.05). Time course data presented in this manuscript are pooled data (n = 5) and expressed as mean ± SEM. Concentration response data are representative, data expressed as mean ± SD from technical triplicates, to avoid misestimation of parameters from combined/pooled data.

hCB1 mutant S173A^2.60 = target: T2, hCB1 mutant S173A^2.60 (Homo sapiens, UniProt P21554, S173A); assay: pIRES G protein dissociation BRET assay, S173A mutant; conditions: for G protein dissociation, AUC of 10 μM compound (maximal response): 10 μM ligand alone
T2 construct: expressed in transfected cells; host or cells: HEK293
Description: as §1
(§4) Mutants of pplss-3HA-hCB1 (WT, pEF-V4-HisA (pEF4a) construct) were generated using a modified QuikChange® (Stratagene, San Diego, CA, USA) site-directed mutagenesis approach using KAPA HiFi Hotstart Polymerase (KAPA Biosystems, Roche, Basel, Switzerland). Briefly, single-stranded primers used to modify one or two base pairs within the target amino acid using PCR were purchased from Integrated DNA Technologies (IDT, Coralville, IA, USA). All pplss-hCB1 mutants were generated using the pplss-3HA-hCB1 pEF4a as parental DNA. PCR products were generated using recommended cycling conditions and treated with Dpn1 (New England Biolabs, Ipswich, MA, USA) overnight at 37° C to digest methylated parental DNA. PCR products were electrophoresed and run on an agarose gel (1% (w.v^−1) agarose, HydraGene, Piscataway, NJ, USA) containing 0.25 μg/mL ethidium bromide (Sigma-Aldrich, St. Louis, MO, USA). Gels were run in 40 mM TRIS-acetate buffer containing […] (pH 8.3) at 100 V for 30 min, maximum current and included a 1kb+ DNA ladder (Invitrogen, Thermo Fisher Scientific, Carlsbad, CA, USA) for reference. Gels were imaged using an UVTech Alliance Q9 Mini transilluminator (UVTech Alliance, Cambridge, UK). Digested products were then used to transform NEB 5α competent E. coli cells in accordance with manufacturer’s instructions. Briefly, transformed PCR products were grown overnight on 8.5 mL Luria Broth agar plates (containing 100 μg/mL ampicillin) at 37° C. Single bacterial colonies were picked and inoculated in Luria Broth (containing 100 μg/mL ampicillin) and grown overnight in a shaking incubator at 37° C. Plasmids were then harvested and purified using a Qiagen miniprep kit (Qiagen, Hilden, Germany) and validated using sequencing (Genetics Analysis Service, University of Otago, Dunedin, New Zealand).
as §2, §3
(§5) To assay, the culture medium was aspirated and cells were washed with phosphate buffered saline (PBS) and replaced with BRET assay medium (phenol red free DMEM containing 25 mM HEPES and supplemented with 1 mg/mL bovine serum albumin; BSA, MP Biomedicals, Auckland, New Zealand) for 30 min prior to drug addition (serum starve). Drugs were prepared at 10 × concentration in BRET assay medium, combined in a polypropylene V-bottom plate, and incubated at 37° C prior to drug stimulation.

hCB1 mutant I245A^4.54 = target: T3, hCB1 mutant I245A^4.54 (Homo sapiens, UniProt P21554, I245A); assay: pIRES G protein dissociation BRET assay, I245A mutant; conditions: for G protein dissociation, AUC of 10 μM compound (maximal response): 10 μM ligand alone
T3 construct: expressed in transfected cells; host or cells: HEK293
Description: as §1, §4, §2, §3, §5

hCB1 mutant K232A^4.41 = target: T4, hCB1 mutant K232A^4.41 (Homo sapiens, UniProt P21554, K232A); assay: pIRES G protein dissociation BRET assay, K232A mutant; conditions: for G protein dissociation, AUC of 10 μM compound (maximal response): 10 μM ligand alone
T4 construct: expressed in transfected cells; host or cells: HEK293
Description: as §1, §4, §2, §3, §5

hCB1 mutant F289A^5.53 = target: T5, hCB1 mutant F289A^5.53 (Homo sapiens, UniProt P21554, F289A); assay: pIRES G protein dissociation BRET assay, F289A mutant; conditions: for G protein dissociation, AUC of 10 μM compound (maximal response): 10 μM ligand alone
T5 construct: expressed in transfected cells; host or cells: HEK293
Description: as §1, §4, §2, §3, §5

[1] = 10 μM CP55940 in the presence of 10 μM ZCZ011
[2] = in the presence of 10 μM GAT228
[3] = in the presence of 10 μM GAT229
[4] = top of the curve (maximal response)

T4 sequence (P21554 whole entry K232A): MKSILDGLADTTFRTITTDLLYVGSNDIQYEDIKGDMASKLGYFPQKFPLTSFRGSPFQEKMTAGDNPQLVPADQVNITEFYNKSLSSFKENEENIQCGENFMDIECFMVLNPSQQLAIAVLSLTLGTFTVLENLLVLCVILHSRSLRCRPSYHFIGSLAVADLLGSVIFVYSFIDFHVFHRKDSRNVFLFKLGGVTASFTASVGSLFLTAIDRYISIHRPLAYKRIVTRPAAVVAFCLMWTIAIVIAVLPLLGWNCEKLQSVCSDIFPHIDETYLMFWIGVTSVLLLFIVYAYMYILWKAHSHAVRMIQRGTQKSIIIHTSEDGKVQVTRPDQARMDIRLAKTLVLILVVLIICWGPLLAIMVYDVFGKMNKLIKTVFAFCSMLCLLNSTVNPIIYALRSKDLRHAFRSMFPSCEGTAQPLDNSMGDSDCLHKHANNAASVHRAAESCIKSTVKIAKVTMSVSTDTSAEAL
T2 sequence (P21554 whole entry S173A): as the sequence (P21554 whole entry K232A) above, with S173A, A232K counted along it
T1 sequence (P21554 whole entry): as the sequence (P21554 whole entry K232A) above, with A232K counted along it
T5 sequence (P21554 whole entry F289A): as the sequence (P21554 whole entry K232A) above, with A232K, F289A counted along it
T3 sequence (P21554 whole entry I245A): as the sequence (P21554 whole entry K232A) above, with A232K, I245A counted along it

With `Cc1ccc2c(C(C[N+](=O)[O-])c3cccs3)c(-c3ccccc3)[nH]c2c1` (stereo not drawn) [ZCZ011, 6-Methyl-3-(2-nitro-1-(thiophen-2-yl)ethyl)-2-phenyl-1 H-indole] the “Allosteric modulation of maximal CP55940-induced G protein dissociation” value (“Allosteric modulation” below) (WT hCB1) was “increased maximal CP55940-induced G protein dissociation”, the “G protein dissociation, AUC of 10 μM compound (maximal response)” value (“G protein dissociation … (maximal response)” for short) (WT hCB1) was −167.3 ± 3.2 and the “Allosteric agonism: G protein dissociation in the absence of an orthosteric ligand” value (from here on “Allosteric agonism”) (WT hCB1) was “increased wild-type G protein dissociation”. For the same compound, the “G protein dissociation … (maximal response)” value (hCB1 mutant S173A^2.60) was −144.2 ± 6.8, the “G protein dissociation … (maximal response)” value (hCB1 mutant I245A^4.54) was −130.4 ± 12.9 and the “G protein dissociation … (maximal response)” value (hCB1 mutant K232A^4.41) was −140.0 ± 7.3. The “G protein dissociation … (maximal response)” value (hCB1 mutant F289A^5.53) was −135.5 ± 6.3.
In the case of `O=[N+]([O-])C[C@@H](c1ccccc1)c1c(-c2ccccc2)[nH]c2ccccc12` [GAT229], the “Allosteric modulation” value (WT hCB1) is reported as “increased maximal CP55940-induced G protein dissociation”, the “Effect on the potency of CP55940-induced G protein dissociation” value (WT hCB1) is reported as “Neither GAT229 nor GAT228 increased the potency” and the “G protein dissociation … (maximal response)” value (WT hCB1) is reported as −148.6 ± 7.2. For the same compound, the “Allosteric agonism” value (WT hCB1) was “increased wild-type G protein dissociation”, the “G protein dissociation … (maximal response)” value (hCB1 mutant S173A^2.60) was −137.3 ± 4.8 and the “G protein dissociation … (maximal response)” value (hCB1 mutant I245A^4.54) was −121.6 ± 8.0. The “G protein dissociation … (maximal response)” value (hCB1 mutant K232A^4.41) was −134.5 ± 7.9 and the “G protein dissociation … (maximal response)” value (hCB1 mutant F289A^5.53) was −123.6 ± 5.9.
For `CCCCCCC(C)(C)c1ccc([C@@H]2C[C@H](O)CC[C@H]2CCCO)c(O)c1` [CP55940], the “G protein dissociation, AUC, 10 μM CP55940 + 10 μM ZCZ011” value (WT hCB1; [1]) was −215.9 ± 2.9, the “EMAX, CP55940 + 10 μM GAT228” value (WT hCB1; [2]) was −194.2 ± 7.3 ∆BRET.sec and the “EMAX, CP55940 + 10 μM GAT229” value (WT hCB1; [3]) was −205.1 ± 7.8 ∆BRET.sec. The “EMAX, CP55940 Alone” value (WT hCB1; [4]) was −184.1 ± 3.8 ∆BRET.sec, the “G protein dissociation, AUC, 10 μM CP55940 + 10 μM ZCZ011” value (hCB1 mutant S173A^2.60; [1]) was −186.8 ± 5.5 and the “G protein dissociation … (maximal response)” value (hCB1 mutant S173A^2.60) was −146.2 ± 5.5. For the same compound, the “EMAX, CP55940 + 10 μM GAT228” value (hCB1 mutant S173A^2.60; [2]) was −176.1 ± 6.9 ∆BRET.sec, the “EMAX, CP55940 + 10 μM GAT229” value (hCB1 mutant S173A^2.60; [3]) was −186.4 ± 7.5 ∆BRET.sec and the “EMAX, CP55940 Alone” value (hCB1 mutant S173A^2.60; [4]) was −143.0 ± 5.7 ∆BRET.sec. For the same compound, the “G protein dissociation, AUC, 10 μM CP55940 + 10 μM ZCZ011” value (hCB1 mutant I245A^4.54; [1]) was −183.2 ± 7.2, the “EMAX, CP55940 + 10 μM GAT228” value (hCB1 mutant I245A^4.54; [2]) was −163.7 ± 8.2 ∆BRET.sec and the “EMAX, CP55940 + 10 μM GAT229” value (hCB1 mutant I245A^4.54; [3]) was −182.9 ± 7.0 ∆BRET.sec. The “EMAX, CP55940 Alone” value (hCB1 mutant I245A^4.54; [4]) was −150.1 ± 9.8 ∆BRET.sec, the “G protein dissociation, AUC, 10 μM CP55940 + 10 μM ZCZ011” value (hCB1 mutant K232A^4.41; [1]) was −194.9 ± 7.2 and the “G protein dissociation … (maximal response)” value (hCB1 mutant K232A^4.41) was −167.7 ± 9.6. The “EMAX, CP55940 + 10 μM GAT228” value (hCB1 mutant K232A^4.41; [2]) was −181.9 ± 8.6 ∆BRET.sec, the “EMAX, CP55940 + 10 μM GAT229” value (hCB1 mutant K232A^4.41; [3]) was −194.9 ± 9.0 ∆BRET.sec and the “EMAX, CP55940 Alone” value (hCB1 mutant K232A^4.41; [4]) was −160.6 ± 7.6 ∆BRET.sec. The “G protein dissociation, AUC, 10 μM CP55940 + 10 μM ZCZ011” value (hCB1 mutant F289A^5.53; [1]) was −167.8 ± 6.9, the “EMAX, CP55940 + 10 μM GAT228” value (hCB1 mutant F289A^5.53; [2]) was −156.7 ± 5.3 ∆BRET.sec and the “EMAX, CP55940 + 10 μM GAT229” value (hCB1 mutant F289A^5.53; [3]) was −161.1 ± 6.5 ∆BRET.sec. For the same compound, the “EMAX, CP55940 Alone” value (hCB1 mutant F289A^5.53; [4]) was −145.4 ± 5.7 ∆BRET.sec.
In the case of `O=[N+]([O-])C[C@H](c1ccccc1)c1c(-c2ccccc2)[nH]c2ccccc12` [GAT228], the “Allosteric modulation” value (WT hCB1) is reported as “did not alter CP55940-induced G protein dissociation”, the “Effect on the potency of CP55940-induced G protein dissociation” value (WT hCB1) is reported as “small but significant decrease in the potency of CP55940” and the “G protein dissociation … (maximal response)” value (WT hCB1) is reported as −105.7 ± 7.2. For the same compound, the “Allosteric agonism” value (WT hCB1) was “increased wild-type G protein dissociation”, the “G protein dissociation … (maximal response)” value (hCB1 mutant S173A^2.60) was −105.5 ± 7.6 and the “G protein dissociation … (maximal response)” value (hCB1 mutant I245A^4.54) was −90.3 ± 8.5. The “G protein dissociation … (maximal response)” value (hCB1 mutant K232A^4.41) was −94.0 ± 10.5 and the “G protein dissociation … (maximal response)” value (hCB1 mutant F289A^5.53) was −97.4 ± 7.2.
